Measured values: patent US20250171437A1 (Agios Pharmaceuticals,Inc., priority 2022, published 2025)

molecular target: T1, human PAH with the R408W mutation (A375 R408W cells) (Homo sapiens, UniProt P00439, R408W); assay: Cell Based Phenylalanine Flux Assay; conditions: A375 R408W cells; 24 hrs with compound, then 20 μM sepiapterin and 800 μM 13C9,15N-Phenylalanine for 4 hours; 13C-Tyrosine by LC-MS; average where tested multiple times
T1 construct: expressed in transfected cells
T1 sequence (P00439 1-452 R408W): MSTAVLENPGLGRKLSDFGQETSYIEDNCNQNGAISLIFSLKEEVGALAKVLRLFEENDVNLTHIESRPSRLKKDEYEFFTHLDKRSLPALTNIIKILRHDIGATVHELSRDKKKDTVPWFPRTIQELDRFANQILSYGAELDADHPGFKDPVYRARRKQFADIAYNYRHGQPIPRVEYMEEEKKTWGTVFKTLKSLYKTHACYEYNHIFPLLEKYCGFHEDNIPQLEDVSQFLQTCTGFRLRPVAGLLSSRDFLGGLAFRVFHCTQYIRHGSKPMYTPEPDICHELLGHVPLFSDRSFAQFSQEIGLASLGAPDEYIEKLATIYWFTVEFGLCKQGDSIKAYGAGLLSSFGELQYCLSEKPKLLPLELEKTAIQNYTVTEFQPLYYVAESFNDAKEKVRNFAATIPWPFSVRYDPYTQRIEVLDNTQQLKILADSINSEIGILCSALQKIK
Summary of the method: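 Stable R408W PAH A375 cells: 24 h compound pretreatment in duplicate, then 4 h with 800 μM isotope-labelled Phe and 20 μM sepiapterin. Labelled Tyr output by LC-MS; AC50 averaged where repeated.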

Compound | AC50 [nM]
C[C@H](O)c1nc(C(F)F)c(C(=O)N2CCc3[nH]cnc3[C@@H]2c2nc3cc(F)ccc3o2)o1 [Example 158, (4-(difluoromethyl)-2-((S)-1-hydroxyethyl)oxazol-5-yl)((R)-4-(5-fluorobenzo[d]oxazol-2-yl)-6,7-dihydro-1H-imidazo[4,5-c]pyridin-5(4H)-yl)methanone] | 1000 to 5000
Cn1nc(C(F)F)nc1C(=O)N1CCc2[nH]cnc2[C@H]1c1nc2cccc(F)c2o1 [Example 285, (S)-(3-(difluoromethyl)-1-methyl-1H-1,2,4-triazol-5-yl)(4-(7-fluorobenzo[d]oxazol-2-yl)-6,7-dihydro-1H-imidazo[4,5-c]pyridin-5(4H)-yl)methanone] | 500 to 1000
CC(F)(F)c1ncoc1C(=O)N1CCc2[nH]cnc2[C@H]1c1nc2c(F)cccc2o1 [Example 651, (S)-(4-(1,1-difluoroethyl)oxazol-5-yl)(4-(4-fluorobenzo[d]oxazol-2-yl)-6,7-dihydro-1H-imidazo[4,5-c]pyridin-5(4H)-yl)methanone] | ≤ 500
Cn1cnc(-c2nc(C(F)F)c(C(=O)N3CCc4[nH]cnc4[C@H]3c3nc4cc(F)ccc4o3)o2)c1 [Example 641, (S)-(4-(difluoromethyl)-2-(1-methyl-1H-imidazol-4-yl)oxazol-5-yl)(4-(5-fluorobenzo[d]oxazol-2-yl)-6,7-dihydro-1H-imidazo[4,5-c]pyridin-5(4H)-yl)methanone] | ≤ 500
Cn1cc(-c2nnc(C(=O)N3CCc4[nH]cnc4[C@@H]3c3nc4c(F)c(F)ccc4o3)o2)cn1 [Example 646, (R)-(4-(4,5-difluorobenzo[d]oxazol-2-yl)-6,7-dihydro-1H-imidazo[4,5-c]pyridin-5(4H)-yl)(5-(1-methyl-1H-pyrazol-4-yl)-1,3,4-oxadiazol-2-yl)methanone] | 1000 to 5000
COc1cccc2oc([C@H]3c4nc[nH]c4CCN3C(=O)c3nnc(-c4ccn(C)n4)o3)nc12 [Example 640, (R)-(4-(4-methoxybenzo[d]oxazol-2-yl)-6,7-dihydro-1H-imidazo[4,5-c]pyridin-5(4H)-yl)(5-(1-methyl-1H-pyrazol-3-yl)-1,3,4-oxadiazol-2-yl)methanone] | 1000 to 5000
Cn1cncc1-c1nc(C(F)F)c(C(=O)N2CCc3[nH]cnc3[C@@H]2c2nc3ccccc3o2)o1 [Example 763, (R)-(4-(benzo[d]oxazol-2-yl)-6,7-dihydro-1H-imidazo[4,5-c]pyridin-5(4H)-yl)(4-(difluoromethyl)-2-(1-methyl-1H-imidazol-5-yl)oxazol-5-yl)methanone] | 1000 to 5000

Second part, the compound after the results:

AC50 [nM] | Compound
1000 to 5000 | CC(C)(C)c1nc(C(F)F)c(C(=O)N2CCc3[nH]cnc3[C@@H]2c2nc3cc(F)ccc3o2)o1 [Example 754, (R)-(2-(tert-butyl)-4-(difluoromethyl)oxazol-5-yl)(4-(5-fluorobenzo[d]oxazol-2-yl)-6,7-dihydro-1H-imidazo[4,5-c]pyridin-5(4H)-yl)methanone]
≤ 500 | Cc1ccc2c(C(=O)N3CCc4[nH]cnc4[C@H]3c3nc4cccc(F)c4o3)cnn2c1 [Example 323, (S)-(4-(7-fluorobenzo[d]oxazol-2-yl)-6,7-dihydro-1H-imidazo[4,5-c]pyridin-5(4H)-yl)(6-methylpyrazolo[1,5-a]pyridin-3-yl)methanone]
≥ 5000 | (R)-(4-(5-fluorobenzo[d]oxazol-2-yl)-6,7-dihydro-1H-imidazo[4,5-c]pyridin-5(4H)-yl)(6-(methoxymethyl)pyrazolo[1,5-a]pyridin-3-yl)methanone [Example 30]
1000 to 5000 | O=C(c1oc(COC(F)(F)F)nc1C(F)F)N1CCc2[nH]cnc2[C@@H]1c1nc2cc(F)ccc2o1 [Example 116, (R)-(4-(difluoromethyl)-2-((trifluoromethoxy)methyl)oxazol-5-yl)(4-(5-fluorobenzo[d]oxazol-2-yl)-6,7-dihydro-1H-imidazo[4,5-c]pyridin-5(4H)-yl)methanone]
≤ 500 | Cn1cc(-c2nc(C(F)F)c(C(=O)N3CCc4[nH]cnc4[C@H]3c3nc4cccc(F)c4o3)o2)cn1 [Example 636, (S)-(4-(difluoromethyl)-2-(1-methyl-1H-pyrazol-4-yl)oxazol-5-yl)(4-(7-fluorobenzo[d]oxazol-2-yl)-6,7-dihydro-1H-imidazo[4,5-c]pyridin-5(4H)-yl)methanone]
≤ 500 | O=C(c1nnc(-c2ccccn2)o1)N1CCc2[nH]cnc2[C@H]1c1nc2ccc(F)cc2o1 [Example 303, (S)-(4-(6-fluorobenzo[d]oxazol-2-yl)-6,7-dihydro-1H-imidazo[4,5-c]pyridin-5(4H)-yl)(5-(pyridin-2-yl)-1,3,4-oxadiazol-2-yl)methanone]
1000 to 5000 | CC(C)(O)c1nc(C(F)(F)F)c(C(=O)N2CCc3[nH]cnc3[C@@H]2c2nc3c(F)cccc3o2)o1 [Example 258, (R)-(4-(4-fluorobenzo[d]oxazol-2-yl)-6,7-dihydro-1H-imidazo[4,5-c]pyridin-5(4H)-yl)(2-(2-hydroxypropan-2-yl)-4-(trifluoromethyl)oxazol-5-yl)methanone]
≤ 500 | O=C(c1ocnc1C(F)F)N1CCc2[nH]cnc2[C@H]1c1nc2c(F)c(F)ccc2o1 [Example 350, (S)-(4-(4,5-difluorobenzo[d]oxazol-2-yl)-6,7-dihydro-1H-imidazo[4,5-c]pyridin-5(4H)-yl)(4-(difluoromethyl)oxazol-5-yl)methanone]
≤ 500 | Cc1ccc2oc([C@H]3c4nc[nH]c4CCN3C(=O)c3oc(-c4cn(C)cn4)nc3C(F)F)nc2c1 [Example 783, (R)-(4-(difluoromethyl)-2-(1-methyl-1H-imidazol-4-yl)oxazol-5-yl)(4-(5-methylbenzo[d]oxazol-2-yl)-6,7-dihydro-1H-imidazo[4,5-c]pyridin-5(4H)-yl)methanone]
1000 to 5000 | Cc1cccc2nc([C@H]3c4nc[nH]c4CCN3C(=O)c3nnc(-c4ccn(C)n4)o3)oc12 [Example 870, (R)-(5-(1-methyl-1H-pyrazol-3-yl)-1,3,4-oxadiazol-2-yl)(4-(7-methylbenzo[d]oxazol-2-yl)-6,7-dihydro-1H-imidazo[4,5-c]pyridin-5(4H)-yl)methanone]
500 to 1000 | O=C(c1ocnc1CC(F)F)N1CCc2[nH]cnc2[C@@H]1c1nc2cc(F)ccc2o1 [Example 866, (R)-(4-(2,2-difluoroethyl)oxazol-5-yl)(4-(5-fluorobenzo[d]oxazol-2-yl)-6,7-dihydro-1H-imidazo[4,5-c]pyridin-5(4H)-yl)methanone]
≥ 5000 | Cc1nc([C@@H](C)O)oc1C(=O)N1CCc2[nH]cnc2[C@@H]1c1nc2c(F)cccc2o1 [Example 209, ((R)-4-(4-fluorobenzo[d]oxazol-2-yl)-6,7-dihydro-1H-imidazo[4,5-c]pyridin-5(4H)-yl)(2-((R)-1-hydroxyethyl)-4-methyloxazol-5-yl)methanone]
1000 to 5000 | Cc1ccc(C)c2oc([C@H]3c4nc[nH]c4CCN3C(=O)c3oc(C(C)(C)O)nc3C(F)F)nc12 [Example 660, (R)-(4-(difluoromethyl)-2-(2-hydroxypropan-2-yl)oxazol-5-yl)(4-(4,7-dimethylbenzo[d]oxazol-2-yl)-6,7-dihydro-1H-imidazo[4,5-c]pyridin-5(4H)-yl)methanone]
≤ 500 | O=C(c1ocnc1CC(F)F)N1CCc2[nH]cnc2[C@H]1c1nc2ccccc2o1 [Example 873, (S)-(4-(benzo[d]oxazol-2-yl)-6,7-dihydro-1H-imidazo[4,5-c]pyridin-5(4H)-yl)(4-(2,2-difluoroethyl)oxazol-5-yl)methanone]
500 to 1000 | Cc1cccc2oc([C@H]3c4nc[nH]c4CCN3C(=O)c3nnc(-c4ccccn4)o3)nc12 [Example 481, (R)-(4-(4-methylbenzo[d]oxazol-2-yl)-6,7-dihydro-1H-imidazo[4,5-c]pyridin-5(4H)-yl)(5-(pyridin-2-yl)-1,3,4-oxadiazol-2-yl)methanone]
1000 to 5000 | O=C(c1ccnn1C(F)(F)F)N1Cc2[nH]cnc2[C@H]1c1nc2ccccc2o1 [Example 953, (S)-(4-(benzo[d]oxazol-2-yl)-4,6-dihydropyrrolo[3,4-d]imidazol-5(1H)-yl)(1-(trifluoromethyl)-1H-pyrazol-5-yl)methanone]

same assay, conditions: A375 cells expressing R408W PAH; 24 hrs with compound, then 20 μM sepiapterin and 800 μM 13C9,15N-Phenylalanine for 4 hours; 13C-Tyrosine by LC-MS; average where tested multiple times

Compound | AC50 [nM]
CC(C)(F)c1nnc(C(=O)N2CCc3[nH]cnc3C2c2nc3cc(F)ccc3o2)o1 (centres unmarked) | 1000 to 5000
O=C(c1nnc(CCN2CC(F)C2)o1)N1CCc2[nH]cnc2C1c1nc2cc(F)ccc2o1 (centres unmarked) | ≥ 5000
CC(C)(O)c1cc(C(=O)N2CCc3[nH]cnc3C2c2nc3ccc(F)cc3o2)no1 (centres unmarked) | 1000 to 5000
O=C(c1ccnn1C(F)F)N1CCc2[nH]cnc2C1c1nc2c(F)c(F)ccc2o1 (centres unmarked) | 1000 to 5000
CCOC(=O)N1CCN(c2ccc3c(C(=O)N4CCc5[nH]cnc5C4c4nc5cc(F)ccc5o4)cnn3c2)CC1 (centres unmarked) | ≥ 5000
Cc1nc(C(C)O)oc1C(=O)N1CCc2[nH]cnc2C1c1nc2c(F)cccc2o1 (centres unmarked) | 1000 to 5000

Continued, values first:

AC50 [nM] | Compound
≥ 5000 | O=C(c1cnn2cc(N3CCC(O)CC3)ccc12)N1CCc2[nH]cnc2C1c1nc2c(F)cc(F)cc2o1 (centres unmarked)
1000 to 5000 | O=C(C1CN(c2ccccn2)C1)N1CCc2[nH]cnc2C1c1nc2cc(F)ccc2o1 (centres unmarked)
≥ 5000 | O=C1CCCN1CCOc1ccc2c(C(=O)N3CCc4[nH]cnc4C3c3nc4cc(F)ccc4o3)cnn2c1 (centres unmarked)
